According to PMC9848300, “Discovery of novel enasidenib analogues targeting inhibition of mutant isocitrate dehydrogenase 2 as antileukaemic agents” (Journal of Enzyme Inhibition and Medicinal Chemistry, 2023):
Like-named read-outs stand apart in the source and are kept apart here.

What was measured:
Assay type in all cases: cell-based
RPMI-8226 = experiment: NCI 60 antitumor screening (single dose / five doses); settings: Homo sapiens
HCT-15 = experiment: as above; settings: Homo sapiens
MOLT-4 = experiment: as above; settings: Homo sapiens
HCT-116 = experiment: as above; settings: Homo sapiens
T-47D = experiment: as above; settings: Homo sapiens, T47D; for inhibition at 10 µM: read-out: Growth inhibition percentage (GI %)
786-0 = experiment: as above; settings: Homo sapiens
BT-549 = experiment: as above; settings: Homo sapiens
CAKI-1 = experiment: NCI 60 antitumor screening (single dose); settings: Homo sapiens; CAKI-1 (renal cancer), single dose 10 μM; read-out: Growth inhibition percentage (GI %)
Summary of the method: (§1)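 NCI-60 protocol: single 10 μM dose against each cell line, run in triplicate. Percent growth (G%) of treated cells measured and growth inhibition reported as GI% = 100 − G%; panel mean also given.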

M14 = experiment: NCI 60 antitumor screening (single dose); settings: Homo sapiens; M14 (melanoma), single dose 10 μM; read-out: Growth inhibition percentage (GI %)
Summary of the method: as §1

OVCAR-8 = experiment: NCI 60 antitumor screening (single dose); settings: Homo sapiens; OVCAR-8 (ovarian cancer), single dose 10 μM; read-out: Growth inhibition percentage (GI %)
Summary of the method: as §1

HOP-62 = experiment: NCI 60 antitumor screening (single dose); settings: Homo sapiens; HOP-62 (non-small cell lung cancer), single dose 10 μM; read-out: Growth inhibition percentage (GI %)
Summary of the method: (§2)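 NCI-60 one-dose screen. Dose: 10 μM. Lines: 60 human tumour lines, nine tissue types. Output: GI% = 100 − G%.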

A549/ATCC = experiment: NCI 60 antitumor screening (single dose); settings: Homo sapiens; A549/ATCC (non-small cell lung cancer), single dose 10 μM; read-out: Growth inhibition percentage (GI %)
Summary of the method: as §1

U251 = experiment: NCI 60 antitumor screening (single dose); settings: Homo sapiens, U-251; U251 (CNS cancer), single dose 10 μM; read-out: Growth inhibition percentage (GI %)
Summary of the method: as §2

OVCAR-5 = experiment: NCI 60 antitumor screening (single dose); settings: Homo sapiens; OVCAR-5 (ovarian cancer), single dose 10 μM; read-out: Growth inhibition percentage (GI %)
Summary of the method: as §2

NCI-H23 = experiment: NCI 60 antitumor screening (single dose); settings: Homo sapiens; NCI-H23 (non-small cell lung cancer), single dose 10 μM; read-out: Growth inhibition percentage (GI %)
Summary of the method: as §2

OVCAR-3 = experiment: NCI 60 antitumor screening (single dose); settings: Homo sapiens; OVCAR-3 (ovarian cancer), single dose 10 μM; read-out: Growth inhibition percentage (GI %)
Summary of the method: as §1

TK-10 = experiment: NCI 60 antitumor screening (single dose); settings: Homo sapiens; TK-10 (renal cancer), single dose 10 μM; read-out: Growth inhibition percentage (GI %)
Summary of the method: as §1

OVCAR-4 = experiment: NCI 60 antitumor screening (single dose); settings: Homo sapiens; OVCAR-4 (ovarian cancer), single dose 10 μM; read-out: Growth inhibition percentage (GI %)
Summary of the method: as §1

SF-268 = experiment: NCI 60 antitumor screening (single dose); settings: Homo sapiens; SF-268 (CNS cancer), single dose 10 μM; read-out: Growth inhibition percentage (GI %)
Summary of the method: as §2

HCC-2998 = experiment: NCI 60 antitumor screening (single dose); settings: Homo sapiens; HCC-2998 (colon cancer), single dose 10 μM; read-out: Growth inhibition percentage (GI %)
Summary of the method: as §2

SNB-19 = experiment: NCI 60 antitumor screening (single dose); settings: Homo sapiens; SNB-19 (CNS cancer), single dose 10 μM; read-out: Growth inhibition percentage (GI %)
Summary of the method: as §1

MCF7 = experiment: NCI 60 antitumor screening (single dose); settings: Homo sapiens; MCF7 (breast cancer), single dose 10 μM; read-out: Growth inhibition percentage (GI %)
Summary of the method: as §1

KM 12 = experiment: NCI 60 antitumor screening (single dose); settings: Homo sapiens, KM12; KM 12 (colon cancer), single dose 10 μM; read-out: Growth inhibition percentage (GI %)
Summary of the method: as §1

NCI-H522 = experiment: NCI 60 antitumor screening (single dose); settings: Homo sapiens; NCI-H522 (non-small cell lung cancer), single dose 10 μM; read-out: Growth inhibition percentage (GI %)
Summary of the method: as §2

NCI-H322M = experiment: NCI 60 antitumor screening (single dose); settings: Homo sapiens; NCI-H322M (non-small cell lung cancer), single dose 10 μM; read-out: Growth inhibition percentage (GI %)
Summary of the method: as §1

NCI-H226 = experiment: NCI 60 antitumor screening (single dose); settings: Homo sapiens; NCI-H226 (non-small cell lung cancer), single dose 10 μM; read-out: Growth inhibition percentage (GI %)
Summary of the method: as §1

UO-31 = experiment: NCI 60 antitumor screening (single dose / five doses); settings: Homo sapiens
[1] = RPMI-8226 (leukaemia), single dose 10 μM, read-out: Growth inhibition percentage (GI %)
[2] = HCT-15 (colon cancer), single dose 10 μM, read-out: Growth inhibition percentage (GI %)
[3] = MOLT-4 (leukaemia), single dose 10 μM, read-out: Growth inhibition percentage (GI %)
[4] = HCT-116 (colon cancer), single dose 10 μM, read-out: Growth inhibition percentage (GI %)
[5] = T-47D (breast cancer), single dose 10 μM
[6] = 786-0, 786-0 (renal cancer), single dose 10 μM, read-out: Growth inhibition percentage (GI %)
[7] = BT-549 (breast cancer), single dose 10 μM, read-out: Growth inhibition percentage (GI %)
[8] = UO-31 (renal cancer), single dose 10 μM, read-out: Growth inhibition percentage (GI %)

Structure (SMILES)	inhibition at 10 µM (RPMI-8226; [1]) [%]	inhibition at 10 µM (CAKI-1) [%]	inhibition at 10 µM (M14) [%]	inhibition at 10 µM (OVCAR-8) [%]	inhibition at 10 µM (HOP-62) [%]	inhibition at 10 µM (A549/ATCC) [%]	inhibition at 10 µM (U251) [%]	inhibition at 10 µM (OVCAR-5) [%]	inhibition at 10 µM (NCI-H23) [%]	inhibition at 10 µM (OVCAR-3) [%]	inhibition at 10 µM (TK-10) [%]	inhibition at 10 µM (OVCAR-4) [%]	inhibition at 10 µM (SF-268) [%]	inhibition at 10 µM (HCC-2998) [%]	inhibition at 10 µM (SNB-19) [%]	inhibition at 10 µM (MCF7) [%]	inhibition at 10 µM (KM 12) [%]	inhibition at 10 µM (NCI-H522) [%]	inhibition at 10 µM (NCI-H322M) [%]	inhibition at 10 µM (NCI-H226) [%]	further results
Fc1cccc(Cl)c1/C=N/Nc1nc(N/N=C/c2c(F)cccc2Cl)nc(N2CCOCC2)n1 [compound 6l, 2,4-Bis[(E)-2-[(2-Chloro-6-fluorophenyl)methylidene]hydrazin-1-yl]-6-(morpholin-4-yl)-1,3,5-triazine]	41.1	17.5	27.8	15.5	6.23	21	11.8	-12.4	27.2	22.9	-16.5	32.8	11.2	5.25	12.9	29	18.9	14.4	16.2	20.4	inhibition at 10 µM (HCT-15; [2]): 22.1%; inhibition at 10 µM (MOLT-4; [3]): 18.2%; inhibition at 10 µM (HCT-116; [4]): 16.4%; inhibition at 10 µM (T-47D; [5]): 29.5%; inhibition at 10 µM (786-0; [6]): 3.32%; inhibition at 10 µM (BT-549; [7]): -1.45%; inhibition at 10 µM (UO-31; [8]): 33.5%
Brc1ccccc1/C=N/Nc1nc(N/N=C/c2ccccc2Br)nc(N2CCCCC2)n1 [compound 7b, 2,4-Bis[(E)-2-[(2-Bromophenyl)methylidene]hydrazin-1-yl]-6-(piperidin-1-yl)-1,3,5-triazine]	-0.33	3.19	-4.12	-1.21	1.14	-2.25	-2.15	0.1	4.71	-6.1	-16.5	0.53	-1.64	-7.41	3.76	13.2	2	6.02	3.65	10.9	inhibition at 10 µM (HCT-15; [2]): 1.2%; inhibition at 10 µM (MOLT-4; [3]): -12.3%; inhibition at 10 µM (HCT-116; [4]): -2.25%; inhibition at 10 µM (T-47D; [5]): 11.2%; inhibition at 10 µM (786-0; [6]): 1.09%; inhibition at 10 µM (BT-549; [7]): -5.26%; inhibition at 10 µM (UO-31; [8]): 7.3%
Clc1cccc(/C=N/Nc2nc(N/N=C/c3cccc(Cl)c3)nc(N3CCCCC3)n2)c1 [compound 7d, 2,4-Bis[(E)-2-[(3-Chlorophenyl)methylidene]hydrazin-1-yl]-6-(piperidin-1-yl)-1,3,5-triazine]	27.6	7.63	4.75	10.8	-4.1	13.7	8.35	-10.4	2.24	8.59	-6.48	9.83	8.03	-8.18	1.37	16.9	8.95	11.7	-1.33	18	inhibition at 10 µM (HCT-15; [2]): 20.2%; inhibition at 10 µM (MOLT-4; [3]): 31.3%; inhibition at 10 µM (HCT-116; [4]): 2.75%; inhibition at 10 µM (T-47D; [5]): 24%; inhibition at 10 µM (786-0; [6]): 4.76%; inhibition at 10 µM (BT-549; [7]): 5.13%; inhibition at 10 µM (UO-31; [8]): 23.2%
O=[N+]([O-])c1cccc(/C=N/Nc2nc(N/N=C/c3cccc([N+](=O)[O-])c3)nc(N3CCCCC3)n2)c1 [compound 7f, 2,4-Bis[(E)-2-[(3-Nitrophenyl)methylidene]hydrazin-1-yl]-6-(piperidin-1-yl)-1,3,5-triazine]	–	27.6	41.2	48.9	41.5	39.3	28.6	-13	37.8	44.4	-9.28	32.3	24.3	5.6	11.5	38.7	35.2	58.1	13.8	42.6	inhibition at 10 µM (RPMI-8226; RPMI-8226, read-out: Growth inhibition percentage (GI %)): 69.3%; inhibition at 10 µM (HCT-15; HCT-15, read-out: Growth inhibition percentage (GI %)): 53.5%; inhibition at 10 µM (MOLT-4; MOLT-4, read-out: Growth inhibition percentage (GI %)): 57.2%; inhibition at 10 µM (HCT-116; HCT-116, read-out: Growth inhibition percentage (GI %)): 47%; inhibition at 10 µM (T-47D): 47.5%; inhibition at 10 µM (786-0; 786-0, read-out: Growth inhibition percentage (GI %)): -6.21%; inhibition at 10 µM (BT-549; BT-549, read-out: Growth inhibition percentage (GI %)): 28.2%; inhibition at 10 µM (UO-31; UO-31, read-out: Growth inhibition percentage (GI %)): 48.4%
CN(C)c1ccc(/C=N/Nc2nc(N/N=C/c3ccc(N(C)C)cc3)nc(N3CCCCC3)n2)cc1 [compound 7g, 4-[(1e)-(2-{4-[(E)-2-{[4-(dimethylamino)phenyl]methylidene}chydrazin-1-yl]-6-(piperidin-1-yl)-1,3,5-triazin-2-yl}hydrazin-1-ylidene)methyl]-N,N-dimethylaniline]	67.4	10.1	27.2	43.4	18.2	21.6	50	3.87	3.27	34.4	-18.4	-6.05	-5.33	-3.1	13.9	68.9	6.98	3.84	-0.12	-1.93	GI50 (RPMI-8226; RPMI-8226, five doses (0.01–100 μM), read-out: GI50): 1920 nM; inhibition at 10 µM (HCT-15; [2]): 99.9%; GI50 (HCT-15; HCT-15, five doses (0.01–100 μM), read-out: GI50): 1870 nM; inhibition at 10 µM (MOLT-4; [3]): 88%; GI50 (MOLT-4; MOLT-4, five doses (0.01–100 μM), read-out: GI50): 2870 nM; inhibition at 10 µM (HCT-116; [4]): 85.1%; GI50 (HCT-116; HCT-116, five doses (0.01–100 μM), read-out: GI50): 1640 nM; inhibition at 10 µM (T-47D; [5]): 54%; GI50 (T-47D; T-47D, five doses (0.01–100 μM), read-out: GI50): 2180 nM; inhibition at 10 µM (786-0; [6]): 11.8%; GI50 (786-0; 786-0, five doses (0.01–100 μM), read-out: GI50): 1690 nM; inhibition at 10 µM (BT-549; [7]): -10.6%; GI50 (BT-549; BT-549, five doses (0.01–100 μM), read-out: GI50): 1550 nM; inhibition at 10 µM (UO-31; [8]): 19.7%; GI50 (UO-31; UO-31, five doses (0.01–100 μM), read-out: GI50): 1720 nM
